These compounds were tested against Endothelial lipase (EL) (Homo sapiens (Human), UniProt Q9Y5X9) (assay: Endothelial lipase (EL) enzymatic assay with fluorescent substrate A10070 in DMPG vesicles).
Format: biochemical
Summary of the method: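 Vesicles prepared: A10070 dried with DMPG, resuspended in HEPES pH 8.0/NaCl/EDTA, sonicated on ice. Enzyme incubated with compound 30 min at 37° C. Reaction started with 1:10 diluted vesicles. Fluorescence (490/530 nm) followed 60 min; slope from 300–900 secs gives rate.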

Endothelial lipase (EL), sequence (Q9Y5X9 21-500): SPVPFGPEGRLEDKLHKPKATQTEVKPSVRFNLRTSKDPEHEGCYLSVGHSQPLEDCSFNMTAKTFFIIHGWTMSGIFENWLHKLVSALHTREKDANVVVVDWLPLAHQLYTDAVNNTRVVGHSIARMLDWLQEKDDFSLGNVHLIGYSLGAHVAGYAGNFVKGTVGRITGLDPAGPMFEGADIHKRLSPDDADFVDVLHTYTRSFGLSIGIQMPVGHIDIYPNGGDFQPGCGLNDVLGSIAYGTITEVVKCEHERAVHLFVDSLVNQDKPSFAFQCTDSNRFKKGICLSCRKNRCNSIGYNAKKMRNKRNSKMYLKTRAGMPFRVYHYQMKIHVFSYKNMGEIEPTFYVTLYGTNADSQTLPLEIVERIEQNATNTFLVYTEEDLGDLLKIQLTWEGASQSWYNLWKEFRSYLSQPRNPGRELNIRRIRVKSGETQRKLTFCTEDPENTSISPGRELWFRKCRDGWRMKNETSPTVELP

Compound	IC50
Cc1ncc(-c2ccc3nc(C(C(=O)NCC(=O)NC4CC4)S(=O)(=O)Cc4cccc(C#N)c4)sc3c2)cn1 (centres unmarked) [Example 21, 2-[(3-cyanophenyl)methanesulfonyl]-N-[(cyclopropyl-carbamoyl)methyl]-2-[6-(2-methylpyrimidin-5-yl)-1,3-benzothiazol-2-yl]acetamide]	145 nM
CN(C)C(=O)c1ccc(-c2ccc3nc(C(C(=O)NCC(=O)NC4CC4)S(=O)(=O)Cc4ccc(F)cc4)sc3c2)cc1 (centres unmarked) [Example 214, 4-[2-({[(cyclopropyl-carbamoyl)methyl]carbamoyl}(4-fluorophenyl)methanesulfonyl-methyl)-1,3-benzothiazol-6-yl]-N,N-dimethyl-benzamide]	18 nM
COCCS(=O)(=O)C(C(=O)NCC(=O)NC1CC1)c1nc2cc(-c3cccnc3)ccc2s1 (centres unmarked) [Example 85, N-[(cyclopropyl-carbamoyl)methyl]-2-(2-methoxyethane-sulfonyl)-2-[5-(pyridin-3-yl)-1,3-benzothiazol-2-yl]acetamide]	85 nM
Cc1ncc(-c2cc(F)c3nc(C(C(=O)NCC(=O)NC4CC4)S(=O)(=O)N(C)C)sc3c2)cn1 (centres unmarked) [Example 491, N-[(cyclopropyl-carbamoyl)methyl]-2-(dimethyl-sulfamoyl)-2-[4-fluoro-6-(2-methylpyrimidin-5-yl)-1,3-benzothiazol-2-yl]acetamide]	82 nM
COCCS(=O)(=O)C(C(=O)NCC(=O)NC1CC1)c1nc2cc(-c3ccncc3F)ccc2s1 (centres unmarked) [Example 73, N-[(cyclopropyl-carbamoyl)methyl]-2-[5-(3-fluoropyridin-4-yl)-1,3-benzothiazol-2-yl]-2-(2-methoxyethane-sulfonyl) acetamide]	28 nM
CS(=O)(=O)C(C(=O)NCC(=O)NC1CC1)c1nc2cc(F)c(-c3ccc(F)nc3)cc2s1 (centres unmarked) [Example 190, N-[(cyclopropyl-carbamoyl)methyl]-2-[5-fluoro-6-(6-fluoropyridin-3-yl)-1,3-benzothiazol-2-yl]-2-methanesulfonyl-acetamide]	16 nM
CC(C)OCCNC(=O)CNC(=O)C(c1nc2ccc(-c3ccc(F)nc3)cc2s1)S(=O)(=O)c1ccc(F)cc1 (centres unmarked) [Example 455, 2-(4-fluorobenzene-sulfonyl)-2-[6-(6-fluoropyridin-3-yl)-1,3-benzothiazol-2-yl]-N-({[2-(propan-2-yloxy)ethyl]carbamoyl}methyl)acetamide]	100 nM
COCCS(=O)(=O)C(C(=O)NCC(=O)NC1CC1)c1nc2cc(-c3cncc(F)c3)ccc2s1 (centres unmarked) [Example 75, N-[(cyclopropyl-carbamoyl)methyl]-2-[5-(5-fluoropyridin-3-yl)-1,3-benzothiazol-2-yl]-2-(2-methoxyethane-sulfonyl) acetamide]	31 nM
COCCS(=O)(=O)C(C(=O)NCC(=O)NCCOC(C)C)c1nc2cc(-c3ccc4c(c3)CNC4=O)c(F)cc2s1 (centres unmarked) [Example 354, 2-[6-fluoro-5-(1-oxo-2,3-dihydro-1H-isoindol-5-yl)-1,3-benzothiazol-2-yl]-2-(2-methoxyethane-sulfonyl)-N-({[2-(propan-2-yloxy)ethyl]carbamoyl}methyl)acetamide]	24 nM
Cn1ccc(-c2ccc3nc(C(C(=O)NCC(=O)NC4CC4)S(=O)(=O)c4ccc(F)cc4)sc3c2)cc1=O (centres unmarked) [Example 458, N-[(cyclopropyl-carbamoyl)methyl]-2-(4-fluorobenzene-sulfonyl)-2-[6-(1-methyl-2-oxo-1,2-dihydropyridin-4-yl)-1,3-benzothiazol-2-yl]acetamide]	32 nM
Cn1ccc(-c2cc(F)c3nc(C(C(=O)NCC(=O)NC4CC4)S(=O)(=O)c4ccc(F)cc4)sc3c2)cc1=O (centres unmarked) [Example 473, N-[(cyclopropyl-carbamoyl)methyl]-2-[4-fluoro-6-(1-methyl-2-oxo-1,2-dihydropyridin-4-yl)-1,3-benzothiazol-2-yl]-2-(4-fluorobenzene-sulfonyl)acetamide]	77 nM
COCCS(=O)(=O)C(C(=O)NCC(=O)NC1CC1)c1nc2cc(-c3cnnc(C)c3)ccc2s1 (centres unmarked) [Example 67, N-[(cyclopropyl-carbamoyl)methyl]-2-(2-methoxyethane-sulfonyl)-2-[5-(6-methylpyridazin-4-yl)-1,3-benzothiazol-2-yl]acetamide]	16 nM
COCCS(=O)(=O)C(C(=O)NCC(=O)NC1CC1)c1nc2ccc(-c3ccc(C(=O)O)cc3)cc2s1 (centres unmarked) [Example 408, 4-[2-({[(cyclopropyl-carbamoyl)methyl]carbamoyl}(2-methoxyethane-sulfonyl)methyl)-1,3-benzothiazol-6-yl]benzoic acid]	48 nM
COCCS(=O)(=O)C(C(=O)NCC(=O)NC1CC1)c1nc2ccc(-c3ccnc(C(F)(F)F)c3)cc2s1 (centres unmarked) [Example 290, N-[(cyclopropyl-carbamoyl)methyl]-2-(2-methoxyethane-sulfonyl)-2-{6-[2-(trifluoromethyl)pyridin-4-yl]-1,3-benzothiazol-2-yl} acetamide]	23 nM
COCCS(=O)(=O)C(C(=O)NCC(=O)NC1CC1)c1nc2cc(-c3ccnc(F)c3)ccc2s1 (centres unmarked) [Example 76, N-[(cyclopropyl-carbamoyl)methyl]-2-[5-(2-fluoropyridin-4-yl)-1,3-benzothiazol-2-yl]-2-(2-methoxyethane-sulfonyl)acetamide]	32 nM
CCOc1ccc(-c2ccc3sc(C(C(=O)NCC(=O)NC4CC4)S(=O)(=O)CCOC)nc3c2)cn1 (centres unmarked) [Example 69, N-[(cyclopropyl-carbamoyl)methyl]-2-[5-(6-ethoxypyridin-3-yl)-1,3-benzothiazol-2-yl]-2-(2-methoxyethane-sulfonyl) acetamide]	23 nM

Now those with a lower IC50, led by results:

IC50	Compound
3 nM	CS(=O)(=O)C(C(=O)NCC(=O)NC1CC1)c1nc2c(F)c(-c3ccc(NC(=O)OCc4ccccc4)cc3)ccc2s1 (centres unmarked) [Example 127, benzyl N-{4-[2-({[(cyclopropyl-carbamoyl)methyl]carbamoyl} (methanesulfonyl)methyl)-4-fluoro-1,3-benzothiazol-5-yl]phenyl} carbamate]
12 nM	Cc1cc2nc(C(C(=O)NCC(=O)NC3CC3)S(=O)(=O)C(C)C)sc2cc1-c1ccc(NC(=O)OCc2ccccc2)cc1 (centres unmarked) [Example 285, benzyl N-{4-[2-({[(cyclopropyl-carbamoyl)methyl]carbamoyl} (propane-2-sulfonyl)methyl)-5-methyl-1,3-benzothiazol-6-yl]phenyl}carbamate]
3 nM	O=C(CNC(=O)C(c1nc2cc(F)c(-c3ccc(NC(=O)OCc4ccccc4)cc3)cc2s1)S(=O)(=O)C1CC1)NC1CC1 (centres unmarked) [Example 50, benzyl N-(4-{2-[(cyclopropane-sulfonyl) ({[(cyclopropyl-carbamoyl)methyl]carbamoyl}methyl]-5-fluoro-1,3-benzothiazol-6-yl}phenyl) carbamate]
2 nM	propan-2-yl N-{4- [2-({[(cyclopropyl- carbamoyl)methyl] carbamoyl}(2- methoxyethane- sulfonyl)methyl)- 5-fluoro-1,3- benzothiazol- 6-yl]phenyl} carbamate [Example 540]
13 nM	CC(C)S(=O)(=O)C(C(=O)NCC(=O)NC1CC1)c1nc2cc(-c3ccc(C(=O)N4CCC4)cc3)c(F)cc2s1 (centres unmarked) [Example 277, 2-{5-[4-(azetidine-1-carbonyl)phenyl]-6-fluoro-1,3-benzothiazol-2-yl}-N-[(cyclopropyl-carbamoyl)methyl]-2-(propane-2-sulfonyl)acetamide]
1 nM	CC(C)OC(=O)Nc1ccc(-c2cc3sc(C(C(=O)NCC(=O)NC4CC4)S(C)(=O)=O)nc3cc2F)cc1 (centres unmarked) [Example 539, propan-2-yl N-{4-[2-({[(cyclopropyl-carbamoyl)methyl]carbamoyl} (methanesulfonyl)methyl)-5-fluoro-1,3-benzothiazol-6-yl]phenyl} carbamate]
11 nM	CC(=O)N(C)c1ccc(-c2cc3sc(C(C(=O)NCC(=O)NC4CC4)S(C)(=O)=O)nc3cc2F)cc1 (centres unmarked) [Example 31, N-[(cyclopropyl-carbamoyl)methyl]-2-{5-fluoro-6-[4-(N-methylacetamido)phenyl]-1,3-benzothiazol-2-yl}-2-methanesulfonyl-acetamide]
9 nM	CN1C(=O)Cc2cc(-c3cc4sc(C(C(=O)NCC(=O)NC5CC5)S(C)(=O)=O)nc4cc3F)ccc21 (centres unmarked) [Example 374, N-[(cyclopropyl-carbamoyl)methyl]-2-[5-fluoro-6-(1-methyl-2-oxo-2,3-dihydro-1H-indol-5-yl)-1,3-benzothiazol-2-yl]-2-methanesulfonyl-acetamide]
9 nM	COCCS(=O)(=O)C(C(=O)NCC(=O)NC1CC1)c1nc2c(F)cc(-c3cnc(OC)c(F)c3)cc2s1 (centres unmarked) [Example 206, N-[(cyclopropyl-carbamoyl)methyl]-2-[4-fluoro-6-(5-fluoro-6-methoxypyridin-3-yl)-1,3-benzothiazol-2-yl]-2-(2-methoxyethane-sulfonyl) acetamide]
8 nM	CN(C)S(=O)(=O)C(C(=O)NCC(=O)NC1CC1)c1nc2c(F)cc(-c3cnc(-c4ccccc4)nc3)cc2s1 (centres unmarked) [Example 500, N-[(cyclopropyl-carbamoyl)methyl]-2-(dimethyl-sulfamoyl)-2-[4-fluoro-6-(2-phenylpyrimidin-5-yl)-1,3-benzothiazol-2-yl]acetamide]
6 nM	O=C(CNC(=O)C(c1nc2ccc(-c3ccc4c(c3)CNC4=O)cc2s1)S(=O)(=O)c1cccnc1)NC1CC1 (centres unmarked) [Example 468, N-[(cyclopropyl-carbamoyl)methyl]-2-[6-(1-oxo-2,3-dihydro-1H-isoindol-5-yl)-1,3-benzothiazol-2-yl]-2-(pyridine-3-sulfonyl) acetamide]
3 nM	CC(C)S(=O)(=O)C(C(=O)NCC(=O)NC1CC1)c1nc2cc(-c3cccc4c3cnn4C)c(F)cc2s1 (centres unmarked) [Example 274, N-[(cyclopropyl-carbamoyl)methyl]-2-[6-fluoro-5-(1-methyl-1H-indazol-4-yl)-1,3-benzothiazol-2-yl]-2-(propane-2-sulfonyl)acetamide]
3 nM	CS(=O)(=O)C(C(=O)NCC(=O)NC1CC1)c1nc2cc(F)c(-c3ccc4[nH]c(=O)ccc4c3)cc2s1 (centres unmarked) [Example 197, N-[(cyclopropyl-carbamoyl)methyl]-2-[5-fluoro-6-(2-oxo-1,2-dihydroquinolin-6-yl)-1,3-benzothiazol-2-yl]-2-methanesulfonyl-acetamide]

— patent publication US10173991B2, “Sulfone amide linked benzothiazole inhibitors of endothelial lipase” (BRISTOL-MYERS SQUIBB COMPANY, priority 2014, dated 2019)
